From patent publication US6762190B2, “Thienylalanine derivatives as inhibitors of cell adhesion” (Aventis Pharma S.A. Deutschland GmbH Genentech, Inc., priority 1999, dated 2004)
pIC50: −log10 of the molar value.

Assays:
[1] = biological target: T1, human vitronectin receptor (VnR) αvβ3 (Homo sapiens, UniProt P05106+P06756); assay: Kistrin binding assay (αvβ3 ELISA test, K/VnR); settings: inhibition of binding of kistrin to human vitronectin receptor
T1 construct: Human vitronectin receptor was obtained from the human placenta according to the method of Pytela et al; from tissue; host or cells: human placenta
T1 sequence (P06756 31-889 limits assumed): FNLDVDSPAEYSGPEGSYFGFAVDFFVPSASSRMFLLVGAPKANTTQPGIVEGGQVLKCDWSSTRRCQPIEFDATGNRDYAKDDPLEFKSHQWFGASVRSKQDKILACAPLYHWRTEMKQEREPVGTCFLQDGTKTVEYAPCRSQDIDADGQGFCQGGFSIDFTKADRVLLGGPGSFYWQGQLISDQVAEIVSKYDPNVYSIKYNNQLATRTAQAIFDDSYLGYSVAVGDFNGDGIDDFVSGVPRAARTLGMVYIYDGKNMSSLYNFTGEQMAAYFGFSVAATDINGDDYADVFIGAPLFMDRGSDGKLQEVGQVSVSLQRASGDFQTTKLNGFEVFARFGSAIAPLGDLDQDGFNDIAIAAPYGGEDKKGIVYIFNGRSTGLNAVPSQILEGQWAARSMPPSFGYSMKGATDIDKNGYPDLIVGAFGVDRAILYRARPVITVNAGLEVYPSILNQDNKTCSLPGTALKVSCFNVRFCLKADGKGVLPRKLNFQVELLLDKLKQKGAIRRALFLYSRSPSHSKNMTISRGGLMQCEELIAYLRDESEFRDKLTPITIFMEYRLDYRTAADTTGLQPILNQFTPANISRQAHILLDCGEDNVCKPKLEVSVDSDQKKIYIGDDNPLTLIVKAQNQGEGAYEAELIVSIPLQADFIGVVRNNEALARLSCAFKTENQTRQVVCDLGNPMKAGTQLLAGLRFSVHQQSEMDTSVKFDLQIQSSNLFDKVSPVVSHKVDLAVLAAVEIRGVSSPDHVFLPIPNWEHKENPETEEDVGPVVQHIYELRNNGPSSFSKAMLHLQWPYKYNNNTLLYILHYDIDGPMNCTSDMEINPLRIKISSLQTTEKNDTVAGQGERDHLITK
T1 sequence (P06756 891-1048 partner limits assumed): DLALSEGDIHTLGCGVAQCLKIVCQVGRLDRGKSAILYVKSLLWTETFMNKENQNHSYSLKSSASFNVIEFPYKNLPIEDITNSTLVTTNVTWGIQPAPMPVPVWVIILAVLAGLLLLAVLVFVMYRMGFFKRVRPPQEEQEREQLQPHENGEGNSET
T1 sequence (P05106 27-788): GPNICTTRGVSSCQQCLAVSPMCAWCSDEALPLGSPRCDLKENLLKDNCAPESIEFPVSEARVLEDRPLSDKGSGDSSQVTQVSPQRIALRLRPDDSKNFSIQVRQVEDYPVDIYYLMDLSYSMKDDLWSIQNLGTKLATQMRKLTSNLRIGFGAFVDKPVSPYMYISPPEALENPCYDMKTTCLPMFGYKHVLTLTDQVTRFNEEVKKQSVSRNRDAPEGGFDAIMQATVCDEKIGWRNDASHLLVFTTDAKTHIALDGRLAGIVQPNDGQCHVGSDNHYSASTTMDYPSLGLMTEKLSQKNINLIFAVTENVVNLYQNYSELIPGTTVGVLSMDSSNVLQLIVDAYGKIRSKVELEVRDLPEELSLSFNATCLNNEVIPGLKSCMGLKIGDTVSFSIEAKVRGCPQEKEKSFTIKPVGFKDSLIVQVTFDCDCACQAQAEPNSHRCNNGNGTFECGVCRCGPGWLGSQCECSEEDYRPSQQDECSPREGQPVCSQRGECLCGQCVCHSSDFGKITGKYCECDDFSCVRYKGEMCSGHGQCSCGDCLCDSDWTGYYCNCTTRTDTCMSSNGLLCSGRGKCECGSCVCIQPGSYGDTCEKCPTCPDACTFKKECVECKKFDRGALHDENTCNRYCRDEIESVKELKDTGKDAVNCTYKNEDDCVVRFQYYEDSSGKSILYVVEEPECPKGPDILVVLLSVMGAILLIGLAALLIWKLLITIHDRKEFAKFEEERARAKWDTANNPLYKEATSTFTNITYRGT
Source text: The inhibition of the binding of kistrin to human vitronectin receptor (VnR) described below is a test method by which the antagonistic action of the compounds of the invention on the vitronectin receptor αvβ3 can be determined (αvβ3 ELISA Test; the test method is abbreviated as “K/VnR” in the listing of the test results).
Kistrin was purified according to the methods of Dennis et al., as described in Proc. Natl. Acad. Sci. USA 87 (1989) 2471 and Proteins: Structure, Function and Genetics 15(1993)312.
Purification of Human Vitronectin Receptor (αvβ3)
Human vitronectin receptor was obtained from the human placenta according to the method of Pytela et al., Methods Enzymol. 144 (1987) 475. Human vitronectin receptor αvβ3 can also be obtained from some cell lines (for example from 293 cells, a human embryonic kidney cell line) which are cotransfected with DNA sequences for both subunits αv and β3 of the vitronectin receptor. The subunits were extracted with octyl glycoside and then chromatographed through concanavalin A, heparin-Sepharose and S-300.
Murine monoclonal antibodies which are specific for the β3 subunits of the vitronectin receptor, were prepared according to the method of Newman et al., Blood (1985) 227, or by a similar process. The rabbit Fab 2 anti-mouse Fc conjugate to horseradish peroxidase (anti-mouse Fc HRP) was obtained from Pel Freeze (Catalog No. 715 305-1).
The ability of substances to inhibit the binding of kistrin to the vitronectin receptor can be determined using an ELISA test. For this purpose, Nunc 96-well microtiter plates were coated with a solution of kistrin (0.002 mg/ml) according to the method of Dennis et al., as described in Proteins: Structure, Function and Genetics 15 (1993) 312. The plates were then washed twice with PBS/0.05% Tween-20 and blocked by incubating (60 min) with bovine serum albumin (BSA, 0.5%, RIA grade or better) in buffer solution (Tris-HCl (50 mM), NaCl (100 mM), MgCl2 (1 mM), CaCl2 (1 mM), MnCl2 (1 mM), pH 7). Solutions of known inhibitors and of the test substances were prepared in concentrations from 2×10^−12 to 2×10^−6 mol/l in assay buffer (BSA (0.5%, RIA grade or better); Tris-HCl (50 mM), NaCl (100 mM), MgCl2 (1 mM), CaCl2 (1 mM), MnCl2 (1 mM), pH 7). The blocked plates were emptied, and in each case 0.025 ml of this solution which contained a defined concentration (2×10^−12 to 2×10^−6 mol/l) either of a known inhibitor or of a test substance, were added to each well. 0.025 ml of a solution of the vitronectin receptor in assay buffer (0.03 mg/ml) is pipetted into each well of the plate and the plate was incubated at room temperature for 60-180 min on a shaker. In the meantime, a solution (6 ml/plate) of a murine monoclonal antibody specific for the β3 subunit of the vitronectin receptor was prepared in assay buffer (0.0015 mg/ml). A second rabbit antibody (0.001 ml of stock solution/6 ml of the murine monoclonal anti-β3 antibody solution) which is an anti-mouse Fc HRP antibody conjugate was added to this solution, and this mixture of murine anti-β3 antibody and rabbit anti-mouse Fc HRP antibody conjugate was incubated during the time of the receptor-inhibitor incubation. The test plates were washed four times with PBS solution which contains 0.05% Tween-20, and in each case 0.05 ml/well of the antibody mixture was pipetted into each well of the plate and incubated for 60-180 min. The plate was washed four times with PBS/0.05% Tween-20 and then developed with 0.05 ml/well of a PBS solution which contained 0.67 mg/ml of o-phenylenediamine and 0.012% of H2O2. Alternatively to this, o-phenylenediamine can be employed in a buffer (pH 5) which contains Na3PO4 and citric acid. The color development was stopped using 1 N H2SO4 (0.05 ml/well). The absorption for each well was measured at 492-405 nm and the data were evaluated by standard methods.

[2] = biological target: 293 cells cotransfected with αv and β3 subunits of the vitronectin receptor αvβ3, binding to human vitronectin (Vn) (Homo sapiens, UniProt P05106+P06756); assay: Vitronectin/293 cell test (inhibition of binding of 293 cells to human vitronectin); assay type: cell-based; settings: inhibition of binding of αvβ3-expressing 293 cells to human vitronectin
Sequence of 293 cells cotransfected with αv and β3 subunits of the vitronectin receptor αvβ3, binding to human vitronectin (Vn) (P05106 whole entry): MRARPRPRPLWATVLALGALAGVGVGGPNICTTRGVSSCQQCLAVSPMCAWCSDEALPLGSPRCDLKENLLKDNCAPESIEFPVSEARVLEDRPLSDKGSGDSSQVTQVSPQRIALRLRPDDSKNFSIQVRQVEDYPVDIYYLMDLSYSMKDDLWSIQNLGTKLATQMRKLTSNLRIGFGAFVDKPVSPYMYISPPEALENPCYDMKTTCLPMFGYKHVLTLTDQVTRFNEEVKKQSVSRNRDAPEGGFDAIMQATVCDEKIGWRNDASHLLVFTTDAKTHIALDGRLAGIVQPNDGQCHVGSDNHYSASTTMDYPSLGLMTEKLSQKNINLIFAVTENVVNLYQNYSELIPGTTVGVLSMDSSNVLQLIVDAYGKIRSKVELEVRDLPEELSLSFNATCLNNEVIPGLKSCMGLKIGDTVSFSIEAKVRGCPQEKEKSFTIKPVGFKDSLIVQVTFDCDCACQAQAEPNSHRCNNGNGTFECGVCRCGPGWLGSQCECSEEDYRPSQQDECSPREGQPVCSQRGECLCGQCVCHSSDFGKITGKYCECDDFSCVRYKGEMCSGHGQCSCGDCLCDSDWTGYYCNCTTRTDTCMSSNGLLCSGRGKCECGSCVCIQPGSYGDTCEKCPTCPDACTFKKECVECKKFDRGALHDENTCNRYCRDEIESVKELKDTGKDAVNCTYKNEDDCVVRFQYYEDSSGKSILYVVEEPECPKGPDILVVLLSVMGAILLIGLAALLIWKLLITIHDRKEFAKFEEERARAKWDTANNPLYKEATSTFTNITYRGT
Sequence of 293 cells cotransfected with αv and β3 subunits of the vitronectin receptor αvβ3, binding to human vitronectin (Vn) (P06756 whole entry): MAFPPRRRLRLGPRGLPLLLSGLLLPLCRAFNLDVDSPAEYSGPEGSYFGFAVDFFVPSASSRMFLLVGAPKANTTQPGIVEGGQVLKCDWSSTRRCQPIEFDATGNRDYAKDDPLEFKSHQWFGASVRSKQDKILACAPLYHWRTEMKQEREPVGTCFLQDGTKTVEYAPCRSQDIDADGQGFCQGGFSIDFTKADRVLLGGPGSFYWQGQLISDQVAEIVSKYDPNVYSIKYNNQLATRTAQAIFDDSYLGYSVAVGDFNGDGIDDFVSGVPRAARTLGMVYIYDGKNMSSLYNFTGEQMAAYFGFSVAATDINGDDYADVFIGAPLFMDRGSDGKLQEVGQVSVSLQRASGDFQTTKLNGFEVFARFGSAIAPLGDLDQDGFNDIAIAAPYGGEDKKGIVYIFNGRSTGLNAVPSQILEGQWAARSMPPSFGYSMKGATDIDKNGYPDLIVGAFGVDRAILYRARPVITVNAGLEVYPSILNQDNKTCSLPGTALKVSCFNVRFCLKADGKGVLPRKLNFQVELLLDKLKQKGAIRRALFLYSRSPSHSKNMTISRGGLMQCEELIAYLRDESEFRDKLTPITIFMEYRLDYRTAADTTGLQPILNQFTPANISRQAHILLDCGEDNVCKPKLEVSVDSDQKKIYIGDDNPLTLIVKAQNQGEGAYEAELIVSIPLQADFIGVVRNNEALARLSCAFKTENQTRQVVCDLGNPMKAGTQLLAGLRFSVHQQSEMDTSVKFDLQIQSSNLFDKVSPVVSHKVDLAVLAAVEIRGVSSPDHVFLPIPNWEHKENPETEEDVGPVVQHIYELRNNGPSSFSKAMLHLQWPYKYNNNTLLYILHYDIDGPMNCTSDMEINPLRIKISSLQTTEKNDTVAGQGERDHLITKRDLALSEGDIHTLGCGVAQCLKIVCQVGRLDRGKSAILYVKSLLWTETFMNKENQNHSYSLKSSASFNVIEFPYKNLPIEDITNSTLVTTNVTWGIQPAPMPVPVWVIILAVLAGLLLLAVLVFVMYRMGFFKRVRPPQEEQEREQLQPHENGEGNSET
Experimental: 2) Vitronectin/293 Cell Test
In this test the inhibition of binding of 293 cells to human vitronectin (Vn) by the compounds of the invention is determined (the test method is abbreviated as “Vn/293 cell test” in the listing of the test results).
Purification of Human Vitronectin
Human vitronectin was isolated from human plasma and purified by affinity chromatography according to the method of Yatohgo et al., Cell Structure and Function 23 (1988) 281.
293 cells, a human embryonic kidney cell line, which were cotransfected with DNA sequences for the αv and β3 subunits of the vitronectin receptor αvβ3, were selected for a high rate of expression (>500,000 αvβ3 receptors/cell) according to the FACS method. The selected cells were cultured and sorted again by means of FACS in order to obtain a stable cell line (15 D) with expression rates >1,000,000 copies of αvβ3 per cell.
A Linbro 96-well tissue culture plate with a flat bottom was coated overnight at 4° C. with human vitronectin (0.01 mg/ml, 0.05 ml/well) in phosphate-buffered saline solution (PBS) and then blocked with 0.5% strength BSA (bovine serum albumin). Solutions of the test substances from 10^−10 mol/l to 2×10^−3 mol/l in glucose-containing DMEM medium were prepared and 0.05 ml/well of the solution were added to the plate in each case. The cells which expressed high levels of αvβ3 (for example 15 D) were suspended in glucose-containing DMEM medium and the suspension was adjusted to a content of 25,000 cells/0.05 ml of medium. 0.05 ml of this cell suspension was added to each well and the plate was incubated at 37° C. for 90 min. The plate was washed 3 times with warm PBS in order to remove unbound cells. The bound cells were lyzed in citrate buffer (25 mM, pH 5.0) which contained 0.25% Triton X-100. The hexoseamidase substrate p-nitrophenyl-N-acetyl-β-D-glucosaminide was then added and the plate was incubated at 37° C. for 90 min. The reaction was stopped with a glycine (50 mM)/EDTA (5 mM) buffer (pH 10.4) and the absorption of each well was measured at 405 to 650 nm. The data were analyzed according to standard methods.

Row | SMILES | pIC50 [1] | pIC50 [2]
1 | O=C(CCCCc1ccc(C[C@H](NS(=O)(=O)c2cccc(Cl)c2)C(=O)O)s1)NC1=NCCCN1 [Example 5, (2S)-2-(3-Chlorobenzenesulfonylamino)-3-(5-(4-(1,4,5,6-tetrahydropyrimidin-2-ylcarbamoyl)-butyl)-thiophen-2-yl)-propionic acid] | 7.82 | 6.38
2 | CC(C)(C)c1ccc(S(=O)(=O)N[C@@H](Cc2ccc(CCCCC(=O)NC3=NCCCN3)s2)C(=O)O)cc1 [Example 10, (2S)-2-(4-tert-Butylbenzenesulfonylamino)-3-(5-(4-(1,4,5,6-tetrahydropyrimidin-2-ylcarbamoyl)-butyl)-thiophen-2-yl)-propionic acid] | 7.02 | 5.16
3 | O=C(CCCCc1ccc(C[C@H](NS(=O)(=O)c2ccccc2)C(=O)O)s1)NC1=NCCCN1 [Example 3, (2S)-2-Benzenesulfonylamino-3-(5-(4-(1,4,5,6-tetrahydropyrimidin-2-ylcarbamoyl)-butyl)-thiophen-2-yl)-propionic acid] | 8.02 | 6.00
4 | O=C(CCCCc1ccc(C[C@H](NS(=O)(=O)c2ccc(C(F)(F)F)cc2)C(=O)O)s1)NC1=NCCCN1 [Example 6, (2S)-3-(5-(4-(1,4,5,6-Tetrahydropyrimidin-2-ylcarbamoyl)-butyl)-thiophen-2-yl)-2-(4-trifluoromethylbenzenesulfonylamino)-propionic acid] | 7.55 | 5.70
5 | O=C(CCCCc1ccc(C[C@H](NS(=O)(=O)CC(F)(F)F)C(=O)O)s1)NC1=NCCCN1 [Example 7, (2S)-3-(5-(4-(1,4,5,6-Tetrahydropyrimidin-2-ylcarbamoyl)-butyl)-thiophen-2-yl)-2-(2,2,2-trifluoroethanesulfonylamino)-propionic acid] | 7.96 | 6.40
6 | O=C(CCCCc1ccc(C[C@H](NS(=O)(=O)c2cccc3ccccc23)C(=O)O)s1)NC1=NCCCN1 [Example 1, (2S)-2-(Naphthalene-1-sulfonylamino)-3-(5-(4-(1,4,5,6-tetrahydropyrimidin-2-ylcarbamoyl)-butyl)-thiophen-2-yl)-propionic Acid] | 7.64 | 6.38
7 | O=C(CCCCc1ccc(C[C@H](NS(=O)(=O)c2ccc(Cl)cc2)C(=O)O)s1)NC1=NCCCN1 [Example 4, (2S)-2-(4-Chlorobenzenesulfonylamino)-3-(5-(4-(1,4,5,6-tetrahydropyrimidin-2-ylcarbamoyl)-butyl)-thiophen-2-yl)-propionic acid] | 7.92 | 6.07
8 | O=C(CCCCCc1ccc(C[C@H](NC(=O)OCc2ccccc2)C(=O)O)s1)NC1=NCCCN1 [Example 13, (2S)-2-Benzyloxycarbonylamino-3-(5-(5-(1,4,5,6-tetrahydropyrimidin-2-ylcarbamoyl)-pentyl)-thiophen-2-yl)-propionic acid] | 7.01 | 6.68
9 | O=C(CCCCc1ccc(C[C@H](NS(=O)(=O)c2ccc3ccccc3c2)C(=O)O)s1)NC1=NCCCN1 [Example 2, (2S)-2-(Naphthalene-2-sulfonylamino)-3-(5-(4-(1,4,5,6-tetrahydropyrimidin-2-ylcarbamoyl)-butyl)-thiophen-2-yl)-propionic acid] | 7.82 | 6.48
10 | O=C(CCCCc1ccc(C[C@H](NC(=O)OCc2ccccc2)C(=O)O)s1)NC1=NCCCN1 [Example 11, (2S)-2-Benzyloxycarbonylamino-3-(5-(4-(1,4,5,6-tetrahydropyrimidin-2-ylcarbamoyl)-butyl)-thiophen-2-yl)-propionic acid] | 8.05 | 6.96
11 | O=C(CC/C=C/c1ccc(C[C@H](NC(=O)OCc2ccccc2)C(=O)O)s1)NC1=NCCCN1 [Example 15, (2S)-2-Benzyloxycarbonylamino-3-(5-(4-(1,4,5,6-tetrahydropyrimidin-2-ylcarbamoyl)-but-1-enyl)-thiophen-2-yl)-propionic acid] | 7.46 | 6.24
12 | CCCCS(=O)(=O)N[C@@H](Cc1ccc(CCCCC(=O)NC2=NCCCN2)s1)C(=O)O [Example 9, (2S)-2-(Butane-1-sulfonylamino)-3-(5-(4-(1,4,5,6-tetrahydropyrimidin-2-ylcarbamoyl)-butyl)-thiopen-2-yl)-propionic acid] | 7.34 | 5.74
13 | O=C(CCCCc1ccc(C[C@H](NC(=O)OCC23CC4CC(CC(C4)C2)C3)C(=O)O)s1)NC1=NCCCN1 [Example 12, (2S)-2-(Adamantan-1-ylmethoxycarbonylamino)-3-(5-(4-(1,4,5,6-tetrahydropyrimidin-2-ylcarbamoyl)-butyl)-thiophen-2-yl)-propionic acid] | 7.64 | 6.66
14 | CCCS(=O)(=O)N[C@@H](Cc1ccc(CCCCC(=O)NC2=NCCCN2)s1)C(=O)O [Example 8, (2S)-2-(Propane-1-sulfonylamino)-3-(5-(4-(1,4,5,6-tetrahydropyrimidin-2-ylcarbamoyl)-butyl)-thiophen-2-yl)-propionic acid] | 7.22 | 6.00
15 | O=C(CCC/C=C/c1ccc(C[C@H](NC(=O)OCc2ccccc2)C(=O)O)s1)NC1=NCCCN1 [Example 14, (2S)-2-Benzyloxycarbonylamino-3-(5-(5-(1,4,5,6-tetrahydropyrimidin-2-ylcarbamoyl)-pent-1-enyl)-thiophen-2-yl)-propionic acid] | 7.40 | 6.16
